For one assay, the target named is ATR/ATRIP (Homo sapiens, UniProt Q13535). Nature of the assay: Inhibition of ATR/ATRIP (unknown origin) using 5-FAM-AK-17 as substrate preincubated with compound for 10 mins followed by ATP addition and measured after 240 mins by mobility shift assay. Format: protein-complex assay.
Assay [1] deals with Granta-519. The experiment in a line: Induction of apoptosis in human Granta-519 cells assessed as viable cells at 2000 nM incubated for 48 hrs by Annexin-V-FITC/propidium iodide staining based flow cytometry (reference value: 92.7 %). In kind it is functional. The conditions noted are these: read-out: Activity.
In assay [2] the test system is Granta-519. The experiment in a line: Antiproliferative activity against human Granta-519 cells assessed as inhibition of cell growth incubated for 72 hrs by MTS assay. The conditions noted are these: Granta-519, 72 h. In kind it is functional, cell-based.
The subject of the next assay is A2780. Nature of the assay: Antiproliferative activity against human A2780 cells assessed as inhibition of cell growth incubated for 72 hrs by MTS assay. In kind it is functional, cell-based. The conditions noted are these: A2780, 72 h. (Tetrazolium assays rely on reduction of a dye to a coloured formazan, in cell work by metabolically active cells.)
A further assay deals with OCI-Ly10. The experiment in a line: Antiproliferative activity against human OCI-Ly10 cells assessed as inhibition of cell growth incubated for 72 hrs by MTS assay. Format: functional, cell-based. The conditions noted are these: OCI-Ly10, 72 h.
The subject of another assay is LoVo. Nature of the assay: Antiproliferative activity against human LoVo cells assessed as inhibition of cell growth incubated for 72 hrs by MTS assay. In kind it is functional, cell-based.
In another assay the test system is HCT-116. The experiment in a line: Antiproliferative activity against human HCT-116 cells assessed as inhibition of cell growth incubated for 72 hrs by MTS assay. Format: functional, cell-based. The conditions noted are these: HCT-116, 72 h.
The next assay concerns NCI-H446. Nature of the assay: Antiproliferative activity against human NCI-H446 cells assessed as inhibition of cell growth incubated for 72 hrs by MTS assay. Format: functional, cell-based. As to conditions: NCI-H446, 72 h.
The subject of a further assay is HT-29. The experiment in a line: Antiproliferative activity against human HT-29 cells assessed as inhibition of cell growth incubated for 72 hrs by MTS assay. The conditions noted are these: HT-29, 72 h. Format: functional, cell-based.
A further assay has as its system SUD4. The experiment in a line: Antiproliferative activity against human SU-DHL-4 cells assessed as inhibition of cell growth incubated for 72 hrs by MTS assay. Format: functional, cell-based. The conditions noted are these: SU-DHL-4, 72 h.
A further assay relates to DLD-1. The experiment in a line: Antiproliferative activity against human DLD-1 cells assessed as inhibition of cell growth incubated for 72 hrs by MTS assay. Format: functional, cell-based. The conditions noted are these: DLD-1, 72 h.
For the next assay, the system named is CAPAN-1. Nature of the assay: Antiproliferative activity against human CAPAN-1 cells assessed as inhibition of cell growth incubated for 72 hrs by MTS assay. Format: functional, cell-based. The conditions noted are these: CAPAN-1, 72 h.
The next assay relates to PC-3. The experiment in a line: Antiproliferative activity against human PC-3 cells assessed as inhibition of cell growth incubated for 72 hrs by MTS assay. In kind it is functional, cell-based. The conditions noted are these: PC-3, 72 h.
In assay [3] the test system is Granta-519. The experiment in a line: Induction of cell cycle arrest in human Granta-519 cells assessed as accumulation of cells at G1 phase at 2000 nM incubated for 24 hrs by propidium iodide staining based flow cytometry (reference value: 45.83 %). Format: functional.
The test system of assay [4] is Granta-519. The experiment in a line: Induction of cell cycle arrest in human Granta-519 cells assessed as accumulation of cells at S phase at 2000 nM incubated for 24 hrs by propidium iodide staining based flow cytometry (reference value: 44.81 %). In kind it is functional. A general note: Flow cytometry measures light scatter and fluorescence of single cells or particles in a stream.

Assay [5] has as its system Granta-519. The experiment in a line: Induction of apoptosis in human Granta-519 cells assessed as early apoptotic cells at 2000 nM incubated for 48 hrs by Annexin-V-FITC/propidium iodide staining based flow cytometry (reference value: 3.75 %). Format: functional.
The test system of assay [6] is Granta-519. The experiment in a line: Induction of apoptosis in human Granta-519 cells assessed as late apoptotic cells at 2000 nM incubated for 48 hrs by Annexin-V-FITC/propidium iodide staining based flow cytometry (reference value: 3.07 %). In kind it is functional.
For assay [7], the system named is Granta-519. Nature of the assay: Induction of apoptosis in human Granta-519 cells assessed as necrotic cells at 2000 nM incubated for 48 hrs by Annexin-V-FITC/propidium iodide staining based flow cytometry (reference value: 0.429 %). In kind it is functional.

pIC50: −log10 of the molar value.

The term pIC50 denotes the IC50 on a negative log10 scale, so that one unit is a factor of ten.

ATR/ATRIP, sequence (Q13535 whole entry): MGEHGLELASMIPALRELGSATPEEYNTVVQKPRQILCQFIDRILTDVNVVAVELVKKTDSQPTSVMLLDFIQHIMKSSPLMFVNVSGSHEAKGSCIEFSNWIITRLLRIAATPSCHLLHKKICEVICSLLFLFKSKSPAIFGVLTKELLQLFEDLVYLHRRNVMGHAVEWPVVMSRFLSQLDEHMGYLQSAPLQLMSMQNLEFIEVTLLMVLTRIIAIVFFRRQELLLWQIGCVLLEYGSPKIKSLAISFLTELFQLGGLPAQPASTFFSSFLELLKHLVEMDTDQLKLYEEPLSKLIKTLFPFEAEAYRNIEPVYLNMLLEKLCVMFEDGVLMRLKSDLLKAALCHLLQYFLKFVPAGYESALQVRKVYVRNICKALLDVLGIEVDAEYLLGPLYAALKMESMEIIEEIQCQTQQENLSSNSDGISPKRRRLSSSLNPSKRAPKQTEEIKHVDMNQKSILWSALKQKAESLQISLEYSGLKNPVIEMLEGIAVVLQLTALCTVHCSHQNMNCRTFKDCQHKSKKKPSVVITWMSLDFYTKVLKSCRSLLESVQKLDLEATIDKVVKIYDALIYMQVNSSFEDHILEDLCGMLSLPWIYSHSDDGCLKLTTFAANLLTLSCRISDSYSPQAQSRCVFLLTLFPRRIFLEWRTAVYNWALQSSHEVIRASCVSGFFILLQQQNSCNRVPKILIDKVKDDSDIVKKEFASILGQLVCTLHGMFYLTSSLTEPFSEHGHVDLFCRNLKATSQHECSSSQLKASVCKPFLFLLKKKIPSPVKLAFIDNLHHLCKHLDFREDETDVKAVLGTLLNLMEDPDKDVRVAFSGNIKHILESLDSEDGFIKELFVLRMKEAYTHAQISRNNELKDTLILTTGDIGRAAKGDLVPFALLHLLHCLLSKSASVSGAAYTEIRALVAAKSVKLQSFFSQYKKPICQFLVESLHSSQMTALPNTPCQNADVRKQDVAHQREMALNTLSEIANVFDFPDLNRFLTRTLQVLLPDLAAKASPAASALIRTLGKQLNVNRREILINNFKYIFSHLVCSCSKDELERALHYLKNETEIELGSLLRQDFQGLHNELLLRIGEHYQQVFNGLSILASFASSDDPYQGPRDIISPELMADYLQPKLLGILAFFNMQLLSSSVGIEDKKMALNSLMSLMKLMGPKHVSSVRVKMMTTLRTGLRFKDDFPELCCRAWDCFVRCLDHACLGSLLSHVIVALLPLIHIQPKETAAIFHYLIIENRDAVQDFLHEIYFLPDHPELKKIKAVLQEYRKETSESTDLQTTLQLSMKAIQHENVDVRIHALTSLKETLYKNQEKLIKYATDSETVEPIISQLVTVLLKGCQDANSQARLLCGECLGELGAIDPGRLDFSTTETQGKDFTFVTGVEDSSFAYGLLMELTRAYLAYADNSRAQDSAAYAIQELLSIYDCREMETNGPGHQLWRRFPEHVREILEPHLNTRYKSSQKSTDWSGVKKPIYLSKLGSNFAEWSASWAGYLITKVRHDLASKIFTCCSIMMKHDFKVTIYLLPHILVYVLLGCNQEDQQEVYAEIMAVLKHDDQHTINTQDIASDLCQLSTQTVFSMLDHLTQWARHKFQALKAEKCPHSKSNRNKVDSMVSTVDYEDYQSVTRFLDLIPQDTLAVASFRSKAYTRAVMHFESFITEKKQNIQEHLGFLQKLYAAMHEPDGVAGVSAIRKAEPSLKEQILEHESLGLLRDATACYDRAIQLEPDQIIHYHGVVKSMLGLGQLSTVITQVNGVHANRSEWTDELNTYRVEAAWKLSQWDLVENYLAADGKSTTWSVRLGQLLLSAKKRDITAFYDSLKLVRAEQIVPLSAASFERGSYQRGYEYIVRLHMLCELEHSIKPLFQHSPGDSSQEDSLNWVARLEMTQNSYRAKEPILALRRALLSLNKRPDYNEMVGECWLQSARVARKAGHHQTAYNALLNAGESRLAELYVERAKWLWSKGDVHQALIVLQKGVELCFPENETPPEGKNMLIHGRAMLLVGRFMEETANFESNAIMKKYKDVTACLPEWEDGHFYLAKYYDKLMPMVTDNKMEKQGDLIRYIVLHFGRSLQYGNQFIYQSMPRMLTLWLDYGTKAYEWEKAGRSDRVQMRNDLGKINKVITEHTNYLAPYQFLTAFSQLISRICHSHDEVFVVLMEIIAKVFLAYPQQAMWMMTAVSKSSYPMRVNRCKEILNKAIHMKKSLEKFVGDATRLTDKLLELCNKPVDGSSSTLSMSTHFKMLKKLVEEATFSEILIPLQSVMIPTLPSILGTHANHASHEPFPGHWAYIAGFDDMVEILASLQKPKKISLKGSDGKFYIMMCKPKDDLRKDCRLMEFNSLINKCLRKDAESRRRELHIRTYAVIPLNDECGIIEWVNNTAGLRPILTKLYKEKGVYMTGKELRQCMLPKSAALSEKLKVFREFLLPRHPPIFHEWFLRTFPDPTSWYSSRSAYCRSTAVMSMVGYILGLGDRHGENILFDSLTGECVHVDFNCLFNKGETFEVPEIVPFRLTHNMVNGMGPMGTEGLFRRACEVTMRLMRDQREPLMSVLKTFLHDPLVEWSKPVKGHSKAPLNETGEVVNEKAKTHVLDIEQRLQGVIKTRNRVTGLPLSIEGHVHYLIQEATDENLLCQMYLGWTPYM
ATR/ATRIP, sequence (Q8WXE1 whole entry, further chain): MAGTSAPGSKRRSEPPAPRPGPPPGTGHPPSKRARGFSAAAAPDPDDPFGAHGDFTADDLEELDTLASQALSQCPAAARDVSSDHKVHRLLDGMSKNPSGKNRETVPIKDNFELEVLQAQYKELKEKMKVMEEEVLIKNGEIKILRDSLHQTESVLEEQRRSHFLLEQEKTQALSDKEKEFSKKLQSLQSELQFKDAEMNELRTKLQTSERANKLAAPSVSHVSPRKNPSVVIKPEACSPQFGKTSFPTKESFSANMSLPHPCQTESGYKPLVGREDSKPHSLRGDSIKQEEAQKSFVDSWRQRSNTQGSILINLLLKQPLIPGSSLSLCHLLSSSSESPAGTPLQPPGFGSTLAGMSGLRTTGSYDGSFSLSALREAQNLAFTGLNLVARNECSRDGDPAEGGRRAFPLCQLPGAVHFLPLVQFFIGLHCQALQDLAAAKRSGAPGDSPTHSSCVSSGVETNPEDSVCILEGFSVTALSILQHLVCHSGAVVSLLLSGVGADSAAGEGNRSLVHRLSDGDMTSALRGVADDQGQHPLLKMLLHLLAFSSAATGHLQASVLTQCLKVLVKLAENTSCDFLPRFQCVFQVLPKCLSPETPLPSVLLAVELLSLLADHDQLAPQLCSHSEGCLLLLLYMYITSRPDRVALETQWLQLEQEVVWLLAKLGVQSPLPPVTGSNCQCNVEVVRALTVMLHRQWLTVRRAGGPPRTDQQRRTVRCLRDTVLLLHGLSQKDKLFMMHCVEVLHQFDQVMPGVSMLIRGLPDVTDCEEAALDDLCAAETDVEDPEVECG

As for `C[C@@H]1COCCN1c1cc(N2CCCS2(=O)=O)nc(-c2cccc3[nH]ccc23)n1`, the pIC50 on ATR/ATRIP was 7.36.
On the same count and under the same terms, with `C[C@@H]1COCCN1c1nc(-c2cccc3[nH]ccc23)nc2c1ccn2S(C)(=O)=O` the figure was 8.64.
With `C[C@@H]1COCCN1c1nc(-c2cccc3[nH]ccc23)nc2c1ccn2S(=O)(=O)c1cccs1`, the pIC50 at ATR/ATRIP is 7.07.
Still for that read-out and setting: the figure for `CC(C)N(c1cc(N2CCOC[C@H]2C)nc(-c2cccc3[nH]ccc23)n1)S(C)(=O)=O` is 8.11; for `C[C@@H]1COCCN1c1nc(-c2cccc3[nH]ccc23)nc2c1ccn2S(=O)(=O)C1CC1` it is 8.42.
The same measure, in the same setting: with `C[C@@H]1COCCN1c1cc(N(C2CC2)S(C)(=O)=O)nc(-c2cccc3[nH]ccc23)n1` the figure was 8.48; with `C[C@@H]1COCCN1c1nc(-c2cnc3ccccc3c2)nc2c1ccn2S(C)(=O)=O`, 6.20.
On to `C[C@@H]1COCCN1c1nc(-c2ccnc3cccnc23)nc2c1ccn2S(C)(=O)=O`, for which the pIC50 on ATR/ATRIP is 5.43.
On to `C[C@@H]1COCCN1c1cc(C2CCCS2(=O)=O)nc(-c2cccc3[nH]ccc23)n1` (stereo partly drawn), for which, at ATR/ATRIP, the pIC50 is 8.03.
As for `C[C@@H]1COCCN1c1cc(C2(S(C)(=O)=O)CC2)nc(-c2cccc3[nH]ccc23)n1`, the viability at 2 µM with Granta-519 [1] stood at 80.6%. For the same compound, the pIC50 in the assay with Granta-519 [2] was 6.30; in the assay on A2780, 6.34; with OCI-Ly10, 5.99; in the assay on LoVo, 6.07; in the assay with HCT-116 it was 5.83; in the assay on NCI-H446 it was 5.41. Also, the pIC50 in the assay with HT-29 is 5.53; in the assay on SUD4, 5.62; in the assay on DLD-1 it was 5.46; with CAPAN-1 it was 5.15; in the assay with PC-3 it was 5.07. Further, the Activity was determined as 35.65% in the assay with Granta-519 [3]; 61.62% in the assay with Granta-519 [4]; 9.18% in the assay with Granta-519 [5]; 9.46% in the assay on Granta-519 [6]; 0.742% with Granta-519 [7].
In the case of `C[C@@H]1COCCN1c1nc(-c2cccc3[nH]ccc23)nc2c1ccn2S(=O)(=O)c1ccccc1`, the pIC50 at ATR/ATRIP is 6.57.
Still for that read-out and setting: the figure for `C[C@@H]1COCCN1c1nc(-c2cccc3occc23)nc2c1ccn2S(C)(=O)=O` is 6.16; for `C[C@@H]1COCCN1c1nc(-c2ccc3nccn3c2)nc2c1ccn2S(C)(=O)=O` it is 6.20.
Same read-out and setting: the figure for `COc1cc(-c2nc(N3CCOC[C@H]3C)c3ccn(S(C)(=O)=O)c3n2)c2cc[nH]c2c1` is 8.28.
Still for that read-out and setting: with `C[C@@H]1COCCN1c1nc(-c2cncc3ccccc23)nc2c1ccn2S(C)(=O)=O` the figure was 7.33.
With `C[C@@H]1COCCN1c1nc(-c2cccc3[nH]ccc23)nc2c1ccn2S(=O)(=O)c1ccc(-c2ccccc2)cc1`, the pIC50 on ATR/ATRIP was 4.99.
Still for that read-out and setting: the figure for `C[C@@H]1COCCN1c1cc(C2CCCCS2(=O)=O)nc(-c2cccc3[nH]ccc23)n1` (stereo partly drawn) is 8.11.
The same measure, in the same setting: the figure for `C[C@@H]1COCCN1c1nc(-c2cc(Cl)cc3[nH]ccc23)nc2c1ccn2S(C)(=O)=O` is 8.36; for `C[C@@H]1COCCN1c1nc(-c2cccc3[nH]ccc23)nc2c1ccn2S(=O)(=O)C1CCCCC1` it is 6.69; for `C[C@@H]1COCCN1c1nc(-c2ccc3[nH]cnc3c2)nc2c1ccn2S(C)(=O)=O` it is 6.61.
On the same count and under the same terms, the figure for `C[C@@H]1COCCN1c1nc(-c2cccc3sccc23)nc2c1ccn2S(C)(=O)=O` is 7.55; for `C[C@@H]1COCCN1c1nc(-c2cccc3[nH]ccc23)nc2c1ccn2S(=O)(=O)N(C)C` it is 8.28; for `C[C@@H]1COCCN1c1nc(-c2cc(C(F)(F)F)cc3[nH]ccc23)nc2c1ccn2S(C)(=O)=O` it is 8.04.
On to `CCS(=O)(=O)n1ccc2c(N3CCOC[C@H]3C)nc(-c3cccc4[nH]ccc34)nc21`, for which the pIC50 at ATR/ATRIP is 8.37.
In the case of `C[C@@H]1COCCN1c1nc(-c2cccc3ccccc23)nc2c1ccn2S(C)(=O)=O`, on ATR/ATRIP, the pIC50 was 7.40.
Consider `C[C@@H]1COCCN1c1nc(-c2cc(C#N)cc3[nH]ccc23)nc2c1ccn2S(C)(=O)=O`, for which the pIC50 at ATR/ATRIP is 8.03.
For the compound `CC(C)S(=O)(=O)n1ccc2c(N3CCOC[C@H]3C)nc(-c3cccc4[nH]ccc34)nc21`, at ATR/ATRIP, the pIC50 is 8.10.
Turning to `C[C@@H]1COCCN1c1nc(-c2cccc3[nH]ccc23)nc2c1CS(=O)(=O)C2`, the pIC50 on ATR/ATRIP is 7.49.
Still for that read-out and setting: with `C[C@@H]1COCCN1c1nc(-c2ccc3[nH]ccc3c2)nc2c1ccn2S(C)(=O)=O` the figure was 7.27.
For the compound `C[C@@H]1COCCN1c1nc(-c2cccc3[nH]ccc23)nc2c1cnn2S(C)(=O)=O`, the pIC50 on ATR/ATRIP is 8.24.
Still for that read-out and setting: with `Cc1ccc(S(=O)(=O)n2ccc3c(N4CCOC[C@H]4C)nc(-c4cccc5[nH]ccc45)nc32)cc1` the figure was 5.44; with `C[C@@H]1COCCN1c1cc(C2(S(=O)(=O)N(C)C)CC2)nc(-c2cccc3[nH]ccc23)n1`, 6.13.

Values taken from ChEMBL document CHEMBL5523766 (J Med Chem, 2024).
